The text below walks through data of patent publication US8206898B2, “RNA exit channel: target and method for inhibition of bacterial RNA polymerase” (priority 2003, dated 2012).

Experiment [1] deals with RNAP-promoter open complex (RNAP holoenzyme, lacUV5-12 DNA fragment) (Escherichia coli, UniProt P0A8T7+P0A8V2). In words: Electrophoretic mobility-shift analysis of open-complex formation. The settings on record: 0-100 μm Lpm, added to RNAP before addition of the promoter DNA; FIG. 3. It counts as biochemical. The protocol:
To determine whether Lpm inhibits steps in transcription up to and including formation of the RNAP-promoter open complex, electrophoretic mobility-shift experiments were performed. The analysis of open-complex formation was performed as follows: reaction mixtures (20 μl) contained 100 nM RNAP holoenzyme, 20 nM fluorochrome-labeled DNA fragment lacUV5-12 (Cy5, +26) (Mukhopadhyay et al., 2001), and 0-100 μm Lpm in TB (50 mM Tris-HCl (pH 8.0), 100 mM KCl, 10 mM MgCl2, 1 mM dithiothreitol, 10 μg/ml bovine serum albumin, and 5% glycerol), added before or after the DNA. Following 15 min at 37° C., 0.5 μl 1 mg/ml heparin was added (to disrupt non-specific complexes), and, following a further 2 minutes at 37° C., reaction mixtures were applied to 5% polyacrylamide slab gels (30:1 acrylamide/bisacrylamide; 6×9×0.1 cm) and electrophoresed in 90 mM Tris-borate (pH 8.0) and 0.2 mM EDTA (20 V/cm; 30 min at 37° C.) and analyzed using a fluorescence scanner (Storm 860; Molecular Dynamics).

In another experiment the test system is bacterial RNAP. The following applies: literature; cited from earlier work.
Experiment [2] concerns Escherichia coli hyper-permeable strain D21f2/TolC. In words: MIC of Lpm for Escherichia coli Lpm^R isolates from saturation mutagenesis and selection. It counts as cell-based. The protocol: To define systematically determinants for function of Lpm, saturation mutagenesis of Escherichia coli rpoB and rpoC was performed, and Lpm^R mutants were isolated and characterized (targeting codons or residues located within 20 Å of Bacillus subtilis Lpm^R sites in the three-dimensional structure of RNAP; methods as in Mukhopadhyay, et al., (2004) Mol. Cell, in press, except that selection was performed in hyper-permeable strain D21f2/TolC (rfa tolC; Fralick et al., (1994) J. Bacteriol. 176, 6404-6406)). 24 independent single-substitution Lpm^r mutants were identified (Table 2). The substitution sites define an approximately 20 Å×20 Å continuous surface, located within the RNA-exit-channel, spanning the target, and containing each residue of the target (i.e., residues 1251, 1256, and 1321 of β and residues 248-249 of β′; Table 2). Substitution sites corresponding to substitution sites in the Bacillus subtilis Lpm^R mutants described above were among those identified (i.e., residue 1256 of β and residues 249 and 337 of β′; Tables 1, 2).

The subject of experiment [3] is Gram-positive bacteria and Gram-negative bacteria. The settings on record: literature (Coronelli et al., 1975); cited from earlier work.

Sequence of RNAP-promoter open complex (RNAP holoenzyme, lacUV5-12 DNA fragment) (P0A7Z4 whole entry, the tested form may be a part): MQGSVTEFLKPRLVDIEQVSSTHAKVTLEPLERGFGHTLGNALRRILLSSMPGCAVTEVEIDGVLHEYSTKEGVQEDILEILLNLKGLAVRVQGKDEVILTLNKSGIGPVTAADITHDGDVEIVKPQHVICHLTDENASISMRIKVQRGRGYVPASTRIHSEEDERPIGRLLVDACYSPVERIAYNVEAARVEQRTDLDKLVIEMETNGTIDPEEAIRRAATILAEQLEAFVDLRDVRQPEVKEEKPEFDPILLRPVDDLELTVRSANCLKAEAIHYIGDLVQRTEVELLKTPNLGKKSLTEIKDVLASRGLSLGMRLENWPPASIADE
Sequence of RNAP-promoter open complex (RNAP holoenzyme, lacUV5-12 DNA fragment) (P0A8V2 whole entry, the tested form may be a part): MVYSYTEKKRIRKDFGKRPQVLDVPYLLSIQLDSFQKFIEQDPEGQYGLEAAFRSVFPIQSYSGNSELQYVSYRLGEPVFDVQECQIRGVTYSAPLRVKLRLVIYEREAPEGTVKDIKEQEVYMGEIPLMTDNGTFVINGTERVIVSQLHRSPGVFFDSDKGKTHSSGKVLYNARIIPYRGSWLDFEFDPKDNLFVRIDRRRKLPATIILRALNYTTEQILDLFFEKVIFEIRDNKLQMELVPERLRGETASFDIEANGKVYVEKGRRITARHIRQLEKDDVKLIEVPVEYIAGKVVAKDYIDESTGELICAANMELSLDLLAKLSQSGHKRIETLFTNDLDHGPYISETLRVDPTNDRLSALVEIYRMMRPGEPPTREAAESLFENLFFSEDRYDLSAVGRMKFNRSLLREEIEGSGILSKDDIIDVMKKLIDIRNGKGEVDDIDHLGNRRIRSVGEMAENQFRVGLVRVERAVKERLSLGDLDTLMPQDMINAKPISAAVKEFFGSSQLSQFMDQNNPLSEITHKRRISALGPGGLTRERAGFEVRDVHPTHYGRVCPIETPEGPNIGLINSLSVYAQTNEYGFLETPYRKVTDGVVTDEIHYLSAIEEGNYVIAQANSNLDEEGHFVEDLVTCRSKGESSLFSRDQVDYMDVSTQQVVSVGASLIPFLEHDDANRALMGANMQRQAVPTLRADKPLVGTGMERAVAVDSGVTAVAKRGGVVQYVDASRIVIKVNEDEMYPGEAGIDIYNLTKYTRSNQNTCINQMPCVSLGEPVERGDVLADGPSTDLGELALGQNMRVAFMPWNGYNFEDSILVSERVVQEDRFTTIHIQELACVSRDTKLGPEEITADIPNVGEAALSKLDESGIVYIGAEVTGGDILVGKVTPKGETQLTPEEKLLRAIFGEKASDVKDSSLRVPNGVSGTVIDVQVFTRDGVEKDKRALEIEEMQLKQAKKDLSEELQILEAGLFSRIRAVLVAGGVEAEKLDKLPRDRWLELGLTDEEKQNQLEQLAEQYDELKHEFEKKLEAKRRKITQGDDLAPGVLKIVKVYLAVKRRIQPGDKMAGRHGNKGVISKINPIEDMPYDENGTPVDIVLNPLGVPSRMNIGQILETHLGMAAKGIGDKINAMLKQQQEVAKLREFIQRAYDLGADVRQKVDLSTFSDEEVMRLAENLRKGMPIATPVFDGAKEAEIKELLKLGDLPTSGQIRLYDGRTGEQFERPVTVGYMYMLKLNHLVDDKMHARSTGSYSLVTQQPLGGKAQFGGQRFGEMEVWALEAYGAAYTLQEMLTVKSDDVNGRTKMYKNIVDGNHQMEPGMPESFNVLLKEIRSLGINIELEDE
Sequence of RNAP-promoter open complex (RNAP holoenzyme, lacUV5-12 DNA fragment) (P0A800 whole entry, further chain, the tested form may be a part): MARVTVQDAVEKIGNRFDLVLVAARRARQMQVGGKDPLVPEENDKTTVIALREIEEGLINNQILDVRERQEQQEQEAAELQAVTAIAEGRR
Sequence of RNAP-promoter open complex (RNAP holoenzyme, lacUV5-12 DNA fragment) (P00579 whole entry, further chain, the tested form may be a part): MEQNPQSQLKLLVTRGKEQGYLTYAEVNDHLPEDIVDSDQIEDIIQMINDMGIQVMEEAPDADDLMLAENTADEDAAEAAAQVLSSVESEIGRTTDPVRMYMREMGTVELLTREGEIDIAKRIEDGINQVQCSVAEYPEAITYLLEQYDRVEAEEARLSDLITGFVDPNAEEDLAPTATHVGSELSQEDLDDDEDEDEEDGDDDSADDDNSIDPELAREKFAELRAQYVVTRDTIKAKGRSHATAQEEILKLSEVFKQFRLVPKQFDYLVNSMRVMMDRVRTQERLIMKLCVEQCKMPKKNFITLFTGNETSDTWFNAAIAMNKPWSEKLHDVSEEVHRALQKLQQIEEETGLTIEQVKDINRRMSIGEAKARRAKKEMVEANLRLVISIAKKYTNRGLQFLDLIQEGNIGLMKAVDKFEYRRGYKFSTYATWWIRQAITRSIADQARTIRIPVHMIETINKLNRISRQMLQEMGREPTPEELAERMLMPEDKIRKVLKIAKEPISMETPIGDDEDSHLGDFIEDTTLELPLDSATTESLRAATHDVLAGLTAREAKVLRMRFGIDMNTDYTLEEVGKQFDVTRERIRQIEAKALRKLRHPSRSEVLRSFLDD
Sequence of RNAP-promoter open complex (RNAP holoenzyme, lacUV5-12 DNA fragment) (P0A8T7 whole entry, the tested form may be a part): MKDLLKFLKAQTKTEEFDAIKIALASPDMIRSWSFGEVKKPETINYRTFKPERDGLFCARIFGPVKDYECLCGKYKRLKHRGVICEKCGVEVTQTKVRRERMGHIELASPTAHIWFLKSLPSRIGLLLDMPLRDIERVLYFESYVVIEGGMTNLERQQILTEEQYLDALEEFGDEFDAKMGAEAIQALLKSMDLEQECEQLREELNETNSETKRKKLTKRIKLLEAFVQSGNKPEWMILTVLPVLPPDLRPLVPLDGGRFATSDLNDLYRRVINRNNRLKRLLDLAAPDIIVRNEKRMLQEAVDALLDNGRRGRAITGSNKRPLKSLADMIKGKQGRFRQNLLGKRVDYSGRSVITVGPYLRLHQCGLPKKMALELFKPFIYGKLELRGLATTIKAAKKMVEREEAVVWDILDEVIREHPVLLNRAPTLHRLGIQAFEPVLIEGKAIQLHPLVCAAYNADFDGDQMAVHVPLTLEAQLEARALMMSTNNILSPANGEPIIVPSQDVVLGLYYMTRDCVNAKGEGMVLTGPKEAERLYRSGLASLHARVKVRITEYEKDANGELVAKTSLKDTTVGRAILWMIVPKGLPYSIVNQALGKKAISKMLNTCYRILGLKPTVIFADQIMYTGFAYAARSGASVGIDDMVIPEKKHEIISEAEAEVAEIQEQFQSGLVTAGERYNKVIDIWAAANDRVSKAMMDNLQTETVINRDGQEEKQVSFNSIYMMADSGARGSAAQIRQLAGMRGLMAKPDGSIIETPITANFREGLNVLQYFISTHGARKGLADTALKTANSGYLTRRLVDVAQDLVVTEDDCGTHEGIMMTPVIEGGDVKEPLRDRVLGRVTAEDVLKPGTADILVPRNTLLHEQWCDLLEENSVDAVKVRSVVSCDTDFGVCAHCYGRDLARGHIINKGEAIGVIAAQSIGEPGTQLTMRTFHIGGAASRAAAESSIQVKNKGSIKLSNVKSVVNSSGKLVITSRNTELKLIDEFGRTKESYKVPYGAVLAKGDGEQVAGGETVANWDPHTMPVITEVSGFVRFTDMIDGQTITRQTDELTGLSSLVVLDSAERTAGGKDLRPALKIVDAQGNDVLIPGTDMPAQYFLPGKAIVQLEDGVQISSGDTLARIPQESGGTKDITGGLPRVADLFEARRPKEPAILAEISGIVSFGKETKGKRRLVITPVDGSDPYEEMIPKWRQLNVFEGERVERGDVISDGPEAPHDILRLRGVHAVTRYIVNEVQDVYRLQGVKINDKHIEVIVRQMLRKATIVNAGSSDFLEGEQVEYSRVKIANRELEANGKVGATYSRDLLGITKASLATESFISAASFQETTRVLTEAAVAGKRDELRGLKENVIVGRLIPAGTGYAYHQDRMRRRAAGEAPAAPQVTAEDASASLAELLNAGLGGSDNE

Regarding lipiarmycin [Lpm], the “formation of the RNAP-promoter open complex” value in experiment [1] is “inhibits formation of the RNAP-promoter open complex”. In the experiment with bacterial RNAP, the “inhibition of bacterial RNAP” value was “inhibits bacterial RNAP”. The “MIC (mg/ml) (wild-type = 1)” value was 10 fold relative to wild-type in experiment [2] (RpoB 1251 Tyr→Phe); 10 fold relative to wild-type in experiment [2] (RpoB 1256 Gln→Glu); 5 fold relative to wild-type in experiment [2] (RpoB 1256 Gln→Leu); 5 fold relative to wild-type in experiment [2] (RpoB 1302 Thr→Pro); 5 fold relative to wild-type in experiment [2] (RpoB 1318 Gly→Ser); 10 fold relative to wild-type in experiment [2] (RpoB 1319 Met→Arg). The “MIC (mg/ml) (wild-type = 1)” value in experiment [2] (RpoB 1319 Met→Lys) is on record as 5 fold relative to wild-type; in experiment [2] (RpoB 1321 Glu→Val), 5 fold relative to wild-type; in experiment [2] (RpoB 1325 Val→Ala), 10 fold relative to wild-type; in experiment [2] (RpoB 1325 Val→Leu), 5 fold relative to wild-type; in experiment [2] (RpoC 248 Asp→Tyr) it was 5 fold relative to wild-type; in experiment [2] (RpoC 249 Leu→Arg), 5 fold relative to wild-type. Moreover, the “MIC (mg/ml) (wild-type = 1)” value in experiment [2] (RpoC 337 Arg→Hys) was 5 fold relative to wild-type; in experiment [2] (RpoC 337 Arg→Ser), 5 fold relative to wild-type; in experiment [2] (wild-type E. coli), “(wild-type = 1) mg/ml”. Besides, the antibacterial effectiveness result in experiment [3] is “effective against both Gram-positive bacteria and Gram-negative bacteria”.
